Entries after “also recorded” stand apart in the source; their conditions may differ.
Experiment: Peptide partition from solution to membrane followed by tryptophan intrinsic fluorescence titration
Assay type: physicochemical
Conditions: for ability to interact with / partition into membranes: tryptophan fluorescence and CD; for ΔG (free energy of membrane partition): ΔG=−RTln(KX)
Method: Small unilamellar vesicles (SUVs) were prepared at a lipid concentration of 10 mM from POPC and POPG at a molar ratio of 10:0 or 8:2 or from DOPC, DOPE, DOPG, Chol at molar ratio 10:0:0:0, 8:0:2:0, 7:3:0:0, 7:0:0:3, 6:3:0:1, and 4:3:2:1 in buffer A, as previously described. Briefly, SUVs were prepared by reverse-phase evaporation and passed through polycarbonate filters 0.8-, 0.4-, and 0.2-μm (Merck Millipore, Darmstadt, Germany). Vesicles were sonicated using a sonicator tip and their hydrodynamic diameters, dispersity, and charge were checked by dynamic light scattering (DLS) and electrophoretic mobility using a NanoZS instrument (Malvern Instruments, Orsay, France).
Fluorescence titrations were performed with a FP-8200 Jasco spectrofluorimeter, equipped with a Peltier-thermostated ETC-272T (25 °C). A bandwidth of 5 nm was used for both excitation and emission beams. Fluorescence experiments were carried out in a 109.004F-QS cuvette (Hellma, France) with constant stirring. Fluorescence emission was recorded between 300 and 400 nm at a scan rate of 200 nm/min, with an excitation wavelength of 280 nm. Fluorescence emission spectra were corrected for SUV light scattering. Maximum emission wavelength (λmax) and fluorescence intensity ratio at 330 nm over 370 nm (P454-derived peptides) or at 340 nm over 380 nm (CyaA-derived peptides) were used to report peptide-membrane interaction and to measure the partition coefficient KX.
The partition coefficient KX is defined as the ratio of protein concentrations in the lipid and in buffer phases. It is expressed as follows:
KX=PL/PW·[W]/[L] , providing PW/PL=[W]/KX[L] , where PW is the concentration of peptide in solution, PL the concentration of peptides partitioning into lipid membrane, [W] represents the concentration of water, and [L] the lipid concentration.
The fraction of peptide partitioned into the membrane phase, fPL, is equal to: fPL=PL/PT=PL/PL+PW=1/(PW/PL)+1=1/([W]/KX[L])+1
The partition coefficient is related to the apparent dissociation constant as follows: KX * KD = [W] with KD * PL = PW * [L]. The equation fPL is fitted to the experimental data using the KaleidaGraph software, providing KX. The free energy corresponding to the transfer of the peptide from the aqueous phase to the lipid phase is given by the equation ΔG=−RTln(KX) , where ΔG is the free energy in kcal/mol, R the gas constant (R = 1.98 × 10^−3 kcal/mol/K), and T the temperature in Kelvin.

[1] = SUVs DOPC/DOPE/DOPG/Chol 4:3:2:1, Trp fluorescence titration (exc. 280 nm, ratio 340/380 nm), 20 mM HEPES, 150 mM NaCl, pH 7.4, 25 °C
[2] = SUVs DOPC/DOPE/DOPG/Chol 4:3:2:1
[3] = SUVs DOPC/DOPE/DOPG/Chol 4:3:2:1, pH 7.4, 25 °C
[4] = SUVs DOPC/DOPG 8:2, Trp fluorescence titration (exc. 280 nm, ratio 330/370 nm), 20 mM HEPES, 150 mM NaCl, pH 7.4, 25 °C, S.D. within ±5%
[5] = SUVs DOPC/DOPG 8:2, pH 7.4, 25 °C, S.D. ±0.1 kcal/mol
[6] = SUVs DOPC, Trp fluorescence titration (exc. 280 nm, ratio 330/370 nm), 20 mM HEPES, 150 mM NaCl, pH 7.4, 25 °C, S.D. within ±5%
[7] = SUVs DOPC, pH 7.4, 25 °C, S.D. ±0.1 kcal/mol
[8] = SUVs POPC/POPG 8:2, Trp fluorescence titration (exc. 280 nm, ratio 330/370 nm), 20 mM HEPES, 150 mM NaCl, pH 7.4, 25 °C, S.D. within ±5%
[9] = SUVs POPC/POPG 8:2, pH 7.4, 25 °C, S.D. ±0.1 kcal/mol
[10] = SUVs POPC, Trp fluorescence titration (exc. 280 nm, ratio 330/370 nm), 20 mM HEPES, 150 mM NaCl, pH 7.4, 25 °C, S.D. within ±5%
[11] = SUVs POPC, pH 7.4, 25 °C, S.D. ±0.1 kcal/mol

CC[C@H](C)[C@H](NC(=O)[C@H](CCCCN)NC(=O)[C@H](Cc1c[nH]c2ccccc12)NC(=O)[C@H](CC(C)C)NC(=O)[C@H](CC(C)C)NC(=O)[C@H](CC(=O)O)NC(=O)[C@@H](NC(=O)[C@H](CCCNC(=N)N)NC(=O)[C@H](CCC(=O)O)NC(=O)[C@H](CCCNC(=N)N)NC(=O)[C@H](CC(=O)O)NC(=O)[C@H](CC(C)C)NC(C)=O)[C@@H](C)CC)C(=O)N[C@@H](C)C(=O)N[C@@H](CCCNC(=N)N)C(=O)N[C@@H](C)C(=O)NCC(=O)N[C@@H](C)C(=O)N[C@@H](CCCNC(=N)N)C(=O)N[C@@H](CO)C(=O)N[C@@H](C)C(=O)N[C@H](C(=O)NCC(N)=O)C(C)C [Peptide P233]
partition coefficient KX [1]: 60 000 | ability to interact with / partition into membranes [2]: able to interact with membranes | ΔG (free energy of membrane partition) [3]: -6.5 kcal/mol

CC[C@H](C)[C@H](NC(=O)[C@H](C)NC(=O)[C@H](Cc1c[nH]cn1)NC(=O)[C@@H](NC(=O)[C@H](CC(C)C)NC(=O)[C@H](CCCNC(=N)N)NC(=O)[C@H](CCC(N)=O)NC(=O)[C@H](C)NC(=O)[C@H](C)NC(=O)[C@H](C)NC(=O)[C@@H](NC(=O)[C@H](C)NC(=O)[C@H](CCC(N)=O)NC(=O)[C@H](C)NC(=O)CNC(=O)[C@H](CCC(N)=O)NC(=O)[C@H](CC(C)C)NC(=O)[C@H](C)NC(=O)[C@H](CCCNC(=N)N)NC(=O)[C@H](CCC(N)=O)NC(=O)CNC(=O)[C@H](Cc1c[nH]c2ccccc12)NC(=O)[C@H](Cc1c[nH]cn1)NC(=O)[C@H](C)NC(=O)[C@H](CO)NC(=O)[C@H](C)NC(C)=O)C(C)C)C(C)C)C(=O)N[C@@H](C)C(=O)N[C@@H](CC(C)C)C(=O)N[C@@H](CCSC)C(=O)N[C@H](C(=O)N[C@@H](CCC(N)=O)C(N)=O)[C@@H](C)O [Peptide P454]
membrane partition on addition of both POPE and cholesterol to POPC (POPC with POPE and cholesterol, data not shown): totally abolishes the partition | partition coefficient KX (SUVs DOPC/Chol 7:3, Trp fluorescence titration, pH 7.4, 25 °C, S.D. within ±5%): 60 000 | ΔG (free energy of membrane partition) (SUVs DOPC/Chol 7:3, pH 7.4, 25 °C): -6.5 kcal/mol | partition coefficient KX (SUVs DOPC/DOPE 7:3, Trp fluorescence titration, pH 7.4, 25 °C, S.D. within ±5%): 80 000 | ΔG (free energy of membrane partition) (SUVs DOPC/DOPE 7:3, pH 7.4, 25 °C): -6.7 kcal/mol | partition coefficient KX (SUVs DOPC/DOPE/Chol 6:3:1, Trp fluorescence titration, pH 7.4, 25 °C, S.D. within ±5%): 40 000 | ΔG (free energy of membrane partition) (SUVs DOPC/DOPE/Chol 6:3:1, pH 7.4, 25 °C): -6.3 kcal/mol | partition coefficient KX [1]: 300 000 | ability to interact with / partition into membranes [2]: able to interact with membranes | ΔG (free energy of membrane partition) [3]: -7.4 kcal/mol | partition coefficient KX [4]: 1 200 000 | ΔG (free energy of membrane partition) [5]: -8.3 kcal/mol | partition coefficient KX [6]: 505 000 | ΔG (free energy of membrane partition) [7]: -7.8 kcal/mol | partition coefficient KX [8]: 790 000 | ΔG (free energy of membrane partition) [9]: -8 kcal/mol | partition coefficient KX [10]: 150 000 | ΔG (free energy of membrane partition) [11]: -7 kcal/mol | ΔΔG, net contribution of arginine residues to partition compared to the lysine residues of R12K (native P454 vs R12K, all membrane lipid compositions tested): ~0.5 ± 0.2 kcal/mol

Ac-APEVIARADNDVNSSLAHGW-NH2 [Peptide P89]
ability to interact with / partition into membranes [2]: no detectable change of tryptophan fluorescence or CD signature; also recorded: do not

Ac-ASAHWGQAALQGAQAVAAAQALVHAIALMTQ-NH2 [P454 R12A]
partition coefficient KX [4]: 795 000 | ΔG (free energy of membrane partition) [5]: -8 kcal/mol | partition coefficient KX [6]: 610 000 | ΔG (free energy of membrane partition) [7]: -7.9 kcal/mol | partition coefficient KX [8]: 275 000 | ΔG (free energy of membrane partition) [9]: -7.4 kcal/mol | partition coefficient KX [10]: 195 000 | ΔG (free energy of membrane partition) [11]: -7.2 kcal/mol

Ac-ASAHWGQEALQGAQAVAAAQELVHAIALMTQ-NH2 [P454 R12E]
partition coefficient KX [4]: 70 000 | ΔG (free energy of membrane partition) [5]: -6.6 kcal/mol | partition coefficient KX [6]: 85 000 | ΔG (free energy of membrane partition) [7]: -6.7 kcal/mol | partition coefficient KX [8]: 30 000 | ΔG (free energy of membrane partition) [9]: -6.1 kcal/mol | partition coefficient KX [10]: 7 000 | ΔG (free energy of membrane partition) [11]: -5.2 kcal/mol

Ac-ASAHWGQKALQGAQAVAAAQKLVHAIALMTQ-NH2 [P454 R12K]
partition coefficient KX [4]: 750 000 | ΔG (free energy of membrane partition) [5]: -8 kcal/mol | partition coefficient KX [6]: 265 000 | ΔG (free energy of membrane partition) [7]: -7.4 kcal/mol | partition coefficient KX [8]: 215 000 | ΔG (free energy of membrane partition) [9]: -7.3 kcal/mol | partition coefficient KX [10]: 60 000 | ΔG (free energy of membrane partition) [11]: -6.5 kcal/mol

Ac-ASAHWGQQALQGAQAVAAAQQLVHAIALMTQ-NH2 [P454 R12Q]
partition coefficient KX [4]: 310 000 | ΔG (free energy of membrane partition) [5]: -7.5 kcal/mol | partition coefficient KX [6]: 195 000 | ΔG (free energy of membrane partition) [7]: -7.2 kcal/mol | partition coefficient KX [8]: 70 000 | ΔG (free energy of membrane partition) [9]: -6.6 kcal/mol | partition coefficient KX [10]: 35 000 | ΔG (free energy of membrane partition) [11]: -6.2 kcal/mol

Ac-ASAHWGQQALQGAQAVAAAQRLVHAIALMTQ-NH2 [P454 R1Q]
partition coefficient KX [4]: 670 000 | ΔG (free energy of membrane partition) [5]: -7.9 kcal/mol | partition coefficient KX [6]: 340 000 | ΔG (free energy of membrane partition) [7]: -7.5 kcal/mol | partition coefficient KX [8]: 190 000 | ΔG (free energy of membrane partition) [9]: -7.2 kcal/mol | partition coefficient KX [10]: 75 000 | ΔG (free energy of membrane partition) [11]: -6.6 kcal/mol

Ac-ASAHWGQRALQGAQAVAAAQQLVHAIALMTQ-NH2 [P454 R2Q]
partition coefficient KX [4]: 655 000 | ΔG (free energy of membrane partition) [5]: -7.9 kcal/mol | partition coefficient KX [6]: 260 000 | ΔG (free energy of membrane partition) [7]: -7.4 kcal/mol | partition coefficient KX [8]: 150 000 | ΔG (free energy of membrane partition) [9]: -7 kcal/mol | partition coefficient KX [10]: 90 000 | ΔG (free energy of membrane partition) [11]: -6.7 kcal/mol

Ac-AYFEKNLQARHEQLANSDGLRKMLADLQAGWNASS-NH2 [Peptide P737]
partition coefficient KX [1]: 20 000 | ability to interact with / partition into membranes [2]: able to interact with membranes | ΔG (free energy of membrane partition) [3]: -5.8 kcal/mol

Ac-EASSAVAETVSGFFRGW-NH2 [Peptide P509]
partition coefficient KX [1]: 80 000 | ability to interact with / partition into membranes [2]: able to interact with membranes | ΔG (free energy of membrane partition) [3]: -6.7 kcal/mol

From paper PMC5705984, “Membrane-Active Properties of an Amphitropic Peptide from the CyaA Toxin Translocation Region” (Toxins, 2017)
